In PubChem BioAssay (NCI):
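In this assay, cells in 96-well plates receive the compound at five concentrations for 48 hours. Endpoints are linearly interpolated between the surrounding concentrations. GI50 marks 50% less growth. At the TGI there is no net growth.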

Legend:
Assay in all cases: NCI-60 cell line screen, 48 h; in the data active means GI50 below about 0.43 µM; inactive means the rest
OVCAR-8 ovarian = test system: OVCAR-8 ovarian
ACHN renal = test system: ACHN renal
CCRF-CEM leukemia = test system: CCRF-CEM leukemia
RPMI-8226 leukemia = test system: RPMI-8226 leukemia
MDA-MB-435 = test system: MDA-MB-435
786-0 renal = test system: 786-0 renal
U251 CNS = test system: U251 CNS
SK-MEL-5 melanoma = test system: SK-MEL-5 melanoma
SK-OV-3 ovarian = test system: SK-OV-3 ovarian
DU-145 prostate = test system: DU-145 prostate
UO-31 renal = test system: UO-31 renal
KM12 colon = test system: KM12 colon
MCF7 breast = test system: MCF7 breast
SNB-75 CNS = test system: SNB-75 CNS
HL-60(TB) leukemia = test system: HL-60(TB) leukemia
HOP-92 NSCLC = test system: HOP-92 NSCLC
SW-620 colon = test system: SW-620 colon
TK-10 renal = test system: TK-10 renal
IGROV1 ovarian = test system: IGROV1 ovarian
UACC-62 melanoma = test system: UACC-62 melanoma
RXF 393 renal = test system: RXF 393 renal
MALME-3M melanoma = test system: MALME-3M melanoma
SF-539 CNS = test system: SF-539 CNS
A549 NSCLC = test system: A549 NSCLC
PC-3 prostate = test system: PC-3 prostate
A498 renal = test system: A498 renal
HCT-116 colon = test system: HCT-116 colon
UACC-257 melanoma = test system: UACC-257 melanoma
CAKI-1 renal = test system: CAKI-1 renal
SF-295 CNS = test system: SF-295 CNS
BT-549 breast = test system: BT-549 breast
SN12C renal = test system: SN12C renal
SNB-19 CNS = test system: SNB-19 CNS
NCI-H522 lung = test system: NCI-H522 lung
HT29 colon = test system: HT29 colon
SR leukemia = test system: SR leukemia
NCI-H460 lung = test system: NCI-H460 lung
SF-268 CNS = test system: SF-268 CNS
T-47D breast = test system: T-47D breast
M14 melanoma = test system: M14 melanoma
MOLT-4 leukemia = test system: MOLT-4 leukemia
HCC-2998 colon = test system: HCC-2998 colon
MDA-MB-231 breast = test system: MDA-MB-231 breast
HOP-62 NSCLC = test system: HOP-62 NSCLC
OVCAR-5 ovarian = test system: OVCAR-5 ovarian
OVCAR-4 ovarian = test system: OVCAR-4 ovarian
NCI-H23 lung = test system: NCI-H23 lung
COLO 205 colon = test system: COLO 205 colon
HS 578T breast = test system: HS 578T breast
OVCAR-3 ovarian = test system: OVCAR-3 ovarian
LOX IMVI melanoma = test system: LOX IMVI melanoma
NCI-H226 lung = test system: NCI-H226 lung
SK-MEL-28 melanoma = test system: SK-MEL-28 melanoma
HCT-15 colon = test system: HCT-15 colon
NCI/ADR-RES ovarian = test system: NCI/ADR-RES ovarian
K-562 leukemia = test system: K-562 leukemia
SK-MEL-2 melanoma = test system: SK-MEL-2 melanoma

O=C1NC(=O)/C(=C/c2ccc3ncccc3c2)S1
> 22.6 µM: TGI (T-47D breast)
> 25 µM: TGI (OVCAR-8 ovarian) | TGI (ACHN renal) | TGI (CCRF-CEM leukemia) | TGI (RPMI-8226 leukemia) | TGI (MDA-MB-435) | TGI (786-0 renal) | TGI (U251 CNS) | TGI (SK-MEL-5 melanoma) | TGI (SK-OV-3 ovarian) | TGI (DU-145 prostate) | TGI (UO-31 renal) | TGI (KM12 colon) | TGI (MCF7 breast) | TGI (SNB-75 CNS) | TGI (HL-60(TB) leukemia) | TGI (SW-620 colon) | TGI (TK-10 renal) | TGI (UACC-62 melanoma) | TGI (RXF 393 renal) | TGI (SF-539 CNS) | TGI (A549 NSCLC) | TGI (PC-3 prostate) | TGI (HCT-116 colon) | TGI (UACC-257 melanoma) | TGI (CAKI-1 renal) | TGI (SF-295 CNS) | TGI (BT-549 breast) | TGI (SN12C renal) | TGI (SNB-19 CNS) | TGI (NCI-H522 lung) | TGI (HT29 colon) | TGI (SR leukemia) | TGI (NCI-H460 lung) | TGI (SF-268 CNS) | TGI (M14 melanoma) | TGI (MOLT-4 leukemia) | TGI (HCC-2998 colon) | TGI (MDA-MB-231 breast) | TGI (HOP-62 NSCLC) | TGI (OVCAR-5 ovarian) | TGI (OVCAR-4 ovarian) | TGI (NCI-H23 lung) | TGI (COLO 205 colon) | TGI (OVCAR-3 ovarian) | TGI (LOX IMVI melanoma) | TGI (NCI-H226 lung) | TGI (SK-MEL-28 melanoma) | TGI (HCT-15 colon) | TGI (NCI/ADR-RES ovarian) | TGI (K-562 leukemia) | TGI (SK-MEL-2 melanoma)
> 20.7 µM: TGI (MALME-3M melanoma)
> 21.7 µM: TGI (IGROV1 ovarian)
inactive: GI50 (OVCAR-8 ovarian) > 25 µM | GI50 (ACHN renal) > 25 µM | GI50 (CCRF-CEM leukemia) > 25 µM | GI50 (RPMI-8226 leukemia) > 25 µM | GI50 (MDA-MB-435) > 25 µM | GI50 (786-0 renal) > 25 µM | GI50 (U251 CNS) > 25 µM | GI50 (SK-MEL-5 melanoma) > 25 µM | GI50 (SK-OV-3 ovarian) 6.08 µM | GI50 (DU-145 prostate) > 25 µM | GI50 (UO-31 renal) 3.51 µM | GI50 (KM12 colon) > 25 µM | GI50 (MCF7 breast) 2.02 µM | GI50 (SNB-75 CNS) 1.4 µM | GI50 (HL-60(TB) leukemia) 8.14 µM | GI50 (HOP-92 NSCLC) 0.749 µM | GI50 (SW-620 colon) > 25 µM | GI50 (TK-10 renal) 6 µM | GI50 (IGROV1 ovarian) > 6.1 µM | GI50 (UACC-62 melanoma) 16.3 µM | GI50 (RXF 393 renal) > 23.2 µM | GI50 (MALME-3M melanoma) 7.11 µM | GI50 (SF-539 CNS) > 25 µM | GI50 (A549 NSCLC) > 23.1 µM | GI50 (PC-3 prostate) 17.9 µM | GI50 (HCT-116 colon) > 25 µM | GI50 (UACC-257 melanoma) > 14.5 µM | GI50 (CAKI-1 renal) > 25 µM | GI50 (SF-295 CNS) > 25 µM | GI50 (BT-549 breast) > 25 µM | GI50 (SN12C renal) > 25 µM | GI50 (SNB-19 CNS) > 25 µM | GI50 (NCI-H522 lung) > 20.3 µM | GI50 (HT29 colon) 19.9 µM | GI50 (SR leukemia) > 25 µM | GI50 (NCI-H460 lung) 12.6 µM | GI50 (SF-268 CNS) > 25 µM | GI50 (T-47D breast) 1.23 µM | GI50 (M14 melanoma) 13.7 µM | GI50 (MOLT-4 leukemia) > 25 µM | GI50 (HCC-2998 colon) > 25 µM | GI50 (MDA-MB-231 breast) > 25 µM | GI50 (HOP-62 NSCLC) > 25 µM | GI50 (OVCAR-5 ovarian) 8.3 µM | GI50 (OVCAR-4 ovarian) > 25 µM | GI50 (NCI-H23 lung) > 25 µM | GI50 (COLO 205 colon) > 25 µM | GI50 (HS 578T breast) 1.96 µM | GI50 (OVCAR-3 ovarian) > 25 µM | GI50 (LOX IMVI melanoma) 13.7 µM | GI50 (NCI-H226 lung) > 25 µM | GI50 (SK-MEL-28 melanoma) 17.2 µM | GI50 (HCT-15 colon) > 21.1 µM | GI50 (NCI/ADR-RES ovarian) > 25 µM | GI50 (K-562 leukemia) > 25 µM | GI50 (SK-MEL-2 melanoma) > 25 µM
> 18.7 µM: TGI (HS 578T breast)
active: GI50 (A498 renal) 0.307 µM
> 22.8 µM: TGI (HOP-92 NSCLC)
2.2 µM: TGI (A498 renal)

CCCCc1ccc(NS(=O)(=O)c2cc3c4c(c2)CCN4C(=O)CC3)cc1
62.5 µM: TGI (RXF 393 renal)
55 µM: TGI (TK-10 renal)
87.2 µM: TGI (COLO 205 colon)
45.4 µM: TGI (SK-MEL-5 melanoma)
> 100 µM: TGI (OVCAR-8 ovarian) | TGI (ACHN renal) | TGI (MDA-MB-435) | TGI (U251 CNS) | TGI (SK-OV-3 ovarian) | TGI (DU-145 prostate) | TGI (UO-31 renal) | TGI (KM12 colon) | TGI (MCF7 breast) | TGI (SW-620 colon) | TGI (IGROV1 ovarian) | TGI (MALME-3M melanoma) | TGI (SF-539 CNS) | TGI (PC-3 prostate) | TGI (HCT-116 colon) | TGI (BT-549 breast) | TGI (SN12C renal) | TGI (SNB-19 CNS) | TGI (HT29 colon) | TGI (SR leukemia) | TGI (NCI-H460 lung) | TGI (SF-268 CNS) | TGI (M14 melanoma) | TGI (HCC-2998 colon) | TGI (MDA-MB-231 breast) | TGI (OVCAR-5 ovarian) | TGI (OVCAR-4 ovarian) | TGI (NCI-H23 lung) | TGI (OVCAR-3 ovarian) | TGI (LOX IMVI melanoma) | TGI (NCI-H226 lung) | TGI (SK-MEL-28 melanoma) | TGI (HCT-15 colon) | TGI (NCI/ADR-RES ovarian) | TGI (K-562 leukemia)
78 µM: TGI (SNB-75 CNS)
78.5 µM: TGI (CAKI-1 renal)
77.6 µM: TGI (MOLT-4 leukemia)
94.1 µM: TGI (HOP-62 NSCLC)
74.6 µM: TGI (786-0 renal)
63.6 µM: TGI (SK-MEL-2 melanoma)
65.2 µM: TGI (UACC-62 melanoma)
58.3 µM: TGI (HL-60(TB) leukemia)
72.1 µM: TGI (T-47D breast)
57 µM: TGI (RPMI-8226 leukemia)
93.8 µM: TGI (SF-295 CNS)
37.5 µM: TGI (A498 renal)
61.2 µM: TGI (HS 578T breast)
36.4 µM: TGI (HOP-92 NSCLC)
inactive: GI50 (OVCAR-8 ovarian) 19.7 µM | GI50 (ACHN renal) 15.7 µM | GI50 (RPMI-8226 leukemia) 7.79 µM | GI50 (MDA-MB-435) 16.9 µM | GI50 (786-0 renal) 17.9 µM | GI50 (U251 CNS) 23.5 µM | GI50 (SK-MEL-5 melanoma) 8.25 µM | GI50 (SK-OV-3 ovarian) 34.9 µM | GI50 (DU-145 prostate) 35.5 µM | GI50 (UO-31 renal) 12.8 µM | GI50 (KM12 colon) 26.9 µM | GI50 (MCF7 breast) 9.94 µM | GI50 (SNB-75 CNS) 18.4 µM | GI50 (HL-60(TB) leukemia) 12.2 µM | GI50 (HOP-92 NSCLC) 9.27 µM | GI50 (SW-620 colon) 33.5 µM | GI50 (TK-10 renal) 15.1 µM | GI50 (IGROV1 ovarian) 44.4 µM | GI50 (UACC-62 melanoma) 6.1 µM | GI50 (RXF 393 renal) 16.1 µM | GI50 (MALME-3M melanoma) 35.4 µM | GI50 (SF-539 CNS) 24.4 µM | GI50 (PC-3 prostate) 11.7 µM | GI50 (A498 renal) 5.82 µM | GI50 (HCT-116 colon) 17.5 µM | GI50 (CAKI-1 renal) 8.49 µM | GI50 (SF-295 CNS) 13.4 µM | GI50 (BT-549 breast) 18 µM | GI50 (SN12C renal) 34.6 µM | GI50 (SNB-19 CNS) 29.8 µM | GI50 (HT29 colon) 32.5 µM | GI50 (SR leukemia) 7.35 µM | GI50 (NCI-H460 lung) 28.2 µM | GI50 (SF-268 CNS) 30.3 µM | GI50 (T-47D breast) 5.48 µM | GI50 (M14 melanoma) 19.8 µM | GI50 (MOLT-4 leukemia) 11.2 µM | GI50 (HCC-2998 colon) 89.5 µM | GI50 (MDA-MB-231 breast) 16.1 µM | GI50 (HOP-62 NSCLC) 28.5 µM | GI50 (OVCAR-5 ovarian) 35.8 µM | GI50 (OVCAR-4 ovarian) 25.1 µM | GI50 (NCI-H23 lung) 10.6 µM | GI50 (COLO 205 colon) 25.1 µM | GI50 (HS 578T breast) 15.2 µM | GI50 (OVCAR-3 ovarian) 22.6 µM | GI50 (LOX IMVI melanoma) 35.1 µM | GI50 (NCI-H226 lung) 15.9 µM | GI50 (SK-MEL-28 melanoma) 39.3 µM | GI50 (HCT-15 colon) 17 µM | GI50 (NCI/ADR-RES ovarian) 7.97 µM | GI50 (K-562 leukemia) 9.3 µM | GI50 (SK-MEL-2 melanoma) 17.5 µM
